Experiment [1] concerns human colon cancer cell line HCT116. Nature of the experiment: Cell proliferation inhibitory activity (Cell Counting Kit-8), colon cancer HCT116. Particulars: HCT-116, 96 h, HCT116, 4 days. It is filed as cell-based. As for the experimental part: (§1) The cell proliferation inhibitory activity was measured for compounds of the present invention represented by formula (I). Cancer cell proliferation inhibitory activity was measured using the Cell Counting Kit-8 (Dojindo). 2000 cells each of human colon cancer cell line HCT116 purchased from the American Type Culture Collection (Virginia, USA) were seeded into each well of a 96-well culture plate followed by the addition of a predetermined concentration of the compounds and cultivating in a CO2environment for 4 days at 37° C. On the fourth day of cultivating, the Cell Counting Kit-8 solution was added and absorbance (measuring wavelength: 450 nm, reference wavelength: 615 nm) was measured in accordance with the protocol provided with the kit.
For orientation: Tetrazolium dyes change colour on reduction, which living cells bring about.

In experiment [2] the test system is human prostate cancer cell line PC3. Nature of the experiment: Cell proliferation inhibitory activity (Cell Counting Kit-8), prostate cancer PC3. It is filed as cell-based. Particulars: 96 h, PC3, 4 days. As for the experimental part:
as §1
(§2) Cancer cell proliferation inhibitory activity was also measured for human lung cancer cell line NCI-H460 and human prostate cancer cell line PC3 purchased from the American Type Culture Collection. 1000 and 3000 cells of NCI-H460 and PC3, respectively, were seeded into each well of a 96-well culture plate followed by testing in the same manner as the human colon cancer cell line and calculating the percentage of cell proliferation inhibition at 2.5 μM.

In another experiment the target is human PI3K(p110α/p85α) (Homo sapiens, UniProt P42336). Put plainly: Measurement of PI3K inhibitory activity (AlphaScreen GST Detection Kit). It counts as biochemical. As to conditions: 10 μM ATP, 4 μM PI(4,5)P2, read-out: Enzyme inhibitory activity (IC50, μM) PI3K α. The method, then: The inhibitory activity of compounds of the present invention represented by formula (I) were measured with human PI3K(p110α/p85α) prepared in a baculovirus expression system using the AlphaScreen GST Detection Kit (Perkin Elmer, Inc.). A predetermined concentration of the compound dissolved in dimethylsulfoxide (DMSO) and PI3K were mixed in a 384-well assay plate and after allowing to stand for 20 minutes at room temperature, 4 μM PI(4,5)P2 (Echelon Corporation) and 10 μM ATP (5 mM Hepes, pH 7.5, 2.5 mM MgCl2) were added to initiate the reaction. After reacting for 15 minutes at 37° C., GST-GRP1 expressed and purified from Escherichia coli, Anti-GST Acceptor Beads (Perkin Elmer, Inc.), Streptavidin Donor Beads (Perkin Elmer, Inc.) and biotin-PI(3,4,5) P3 (Echelon Corporation) (10 mM Tris-HCl pH 7.4, 150 mM NaCl, 7.5 mM EDTA, 1 mM DTT, 0.1% Tween 20) were added, and after allowing to stand for 1 hour at room temperature, light at 520 to 620 nm emitted as a result of exciting with light at 680 nm was measured with the Envision measuring instrument (Perkin Elmer, Inc.).
Test Example 1 described above can be performed according to “Analytical Biochemistry, 2003, 313, 234-245; Alexander Gray et al”.

Experiment [3] deals with human lung cancer cell line NCI-H460. Nature of the experiment: Cell proliferation inhibitory activity (Cell Counting Kit-8), lung cancer NCI-H460. It counts as cell-based. Particulars: 96 h, NCI-H460, 4 days, read-out: Cell proliferation inhibitory activity (% Inhibition at 2.5 μM) Non-small cell lung cancer (NCI-H460). As for the experimental part:
as §1, §2

human PI3K(p110α/p85α), sequence (P42336 whole entry): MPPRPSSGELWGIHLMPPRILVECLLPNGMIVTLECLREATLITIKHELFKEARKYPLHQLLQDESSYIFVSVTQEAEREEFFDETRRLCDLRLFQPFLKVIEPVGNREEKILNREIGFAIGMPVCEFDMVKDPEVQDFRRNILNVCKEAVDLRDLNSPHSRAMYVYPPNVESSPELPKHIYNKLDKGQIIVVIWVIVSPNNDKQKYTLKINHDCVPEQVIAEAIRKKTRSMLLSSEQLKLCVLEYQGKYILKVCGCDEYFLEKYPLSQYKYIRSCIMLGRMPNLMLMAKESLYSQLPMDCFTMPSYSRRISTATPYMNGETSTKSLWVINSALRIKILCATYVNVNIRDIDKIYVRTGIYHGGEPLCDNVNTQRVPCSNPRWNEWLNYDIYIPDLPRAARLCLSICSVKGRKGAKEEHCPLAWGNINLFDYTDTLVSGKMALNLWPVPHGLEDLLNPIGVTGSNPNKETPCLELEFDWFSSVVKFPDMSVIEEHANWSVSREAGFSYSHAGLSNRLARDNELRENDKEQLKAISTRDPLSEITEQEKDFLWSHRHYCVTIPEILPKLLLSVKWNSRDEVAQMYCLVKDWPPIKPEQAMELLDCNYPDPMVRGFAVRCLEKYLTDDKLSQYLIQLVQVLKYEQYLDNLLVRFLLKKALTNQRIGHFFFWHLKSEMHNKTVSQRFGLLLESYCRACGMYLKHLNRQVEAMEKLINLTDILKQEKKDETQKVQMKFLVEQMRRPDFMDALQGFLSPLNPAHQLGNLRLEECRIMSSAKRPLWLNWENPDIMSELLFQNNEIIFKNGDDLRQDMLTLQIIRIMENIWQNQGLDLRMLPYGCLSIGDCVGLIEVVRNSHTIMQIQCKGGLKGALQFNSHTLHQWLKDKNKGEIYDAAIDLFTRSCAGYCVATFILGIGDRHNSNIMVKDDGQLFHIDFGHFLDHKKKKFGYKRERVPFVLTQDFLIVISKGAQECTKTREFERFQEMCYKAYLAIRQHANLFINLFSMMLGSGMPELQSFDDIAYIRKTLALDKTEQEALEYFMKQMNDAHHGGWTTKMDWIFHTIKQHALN
human PI3K(p110α/p85α), sequence (P27986 whole entry partner): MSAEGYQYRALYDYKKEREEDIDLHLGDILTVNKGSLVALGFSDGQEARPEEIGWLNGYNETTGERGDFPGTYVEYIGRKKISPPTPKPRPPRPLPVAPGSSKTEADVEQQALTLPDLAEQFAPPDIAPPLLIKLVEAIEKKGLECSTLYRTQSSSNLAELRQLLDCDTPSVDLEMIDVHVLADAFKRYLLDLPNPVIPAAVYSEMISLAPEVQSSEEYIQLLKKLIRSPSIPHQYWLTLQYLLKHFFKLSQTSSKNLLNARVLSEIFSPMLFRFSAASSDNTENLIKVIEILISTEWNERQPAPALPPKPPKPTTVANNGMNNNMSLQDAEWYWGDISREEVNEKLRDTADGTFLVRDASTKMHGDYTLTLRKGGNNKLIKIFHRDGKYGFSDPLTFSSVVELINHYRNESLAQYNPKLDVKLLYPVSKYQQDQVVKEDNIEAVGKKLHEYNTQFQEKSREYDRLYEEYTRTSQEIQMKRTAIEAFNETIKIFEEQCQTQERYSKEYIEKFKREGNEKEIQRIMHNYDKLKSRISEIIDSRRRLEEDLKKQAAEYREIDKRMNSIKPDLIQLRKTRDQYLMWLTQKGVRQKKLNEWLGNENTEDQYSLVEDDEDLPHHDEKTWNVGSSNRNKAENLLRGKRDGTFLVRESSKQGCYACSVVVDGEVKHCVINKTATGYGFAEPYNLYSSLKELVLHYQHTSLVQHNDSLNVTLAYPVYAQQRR

Usually IC50 stands for the concentration that inhibits the measured activity by half. For the compound `CN(Cc1cccnc1)C(=O)c1ccc(N2CCc3c(-c4cnc(N)nc4)nc(N4CCOCC4)nc32)c(F)c1` [Example D-318, 4-[4-(2-Amino-pyrimidin-5-yl)-2-morpholin-4-yl-5,6-dihydro-pyrrolo[2,3-d]pyrimidin-7-yl]-3-fluoro-N-methyl-N-pyridin-3-ylmethyl-benzamide], the inhibition at 2.5 µM was determined as 96% in experiment [1], 94% in experiment [2] and 89% in experiment [3]. Besides, at human PI3K(p110α/p85α), the IC50 was 0.007 µM.

For `Nc1ncc(-c2nc(N3CCOCC3)nc3c2CCN3C(=O)Nc2cccc(C(=O)N3CCOCC3)c2)cn1` [Example D-102, 4-(2-Amino-pyrimidin-5-yl)-2-morpholin-4-yl-5,6-dihydro-pyrrolo[2,3-d]pyrimidine-7-carboxylic acid [3-(morpholine-4-carbonyl)-phenyl]-amide], the inhibition at 2.5 µM in experiment [1] came to 72%; in experiment [2] it was 70%; in experiment [3] it was 94%. On human PI3K(p110α/p85α), the IC50 was determined as 0.007 µM.

Regarding `CCN1CCN(C(=O)c2ccc(NC(=O)N3CCc4c(-c5cnc(N)nc5)nc(N5CCOCC5)nc43)cc2)CC1` [Example D-103, 4-(2-Amino-pyrimidin-5-yl)-2-morpholin-4-yl-5,6-dihydro-pyrrolo[2,3-d]pyrimidine-7-carboxylic acid [4-(4-ethyl-piperazine-1-carbonyl)-phenyl]-amide], the inhibition at 2.5 µM in experiment [1] amounted to 74%; in experiment [2] it was 80%; in experiment [3], 92%. For the same compound, on human PI3K(p110α/p85α), the IC50 came to 0.006 µM.

As to `COc1ncc(-c2nc(N3CCOCC3)nc3c2CCN3c2cccnc2)c(OC)n1` [Example B-09, 4-(2,4-Dimethoxy-pyrimidin-5-yl)-2-morpholin-4-yl-7-pyridin-3-yl-6,7-dihydro-5H-pyrrolo[2,3-d]pyrimidine], the inhibition at 2.5 µM in experiment [1] turned out to be 45%; in experiment [2] it was 56%; in experiment [3] it was 67%. In addition, the IC50 at human PI3K(p110α/p85α) is 0.26 µM.

Take `CN(C)CCCNc1cc(N2CCc3c(-c4cccc(O)c4)nc(N4CCOCC4)nc32)ccn1` [Example H-12, 3-{7-[2-(3-Dimethylamino-propylamino)-pyridin-4-yl]-2-morpholin-4-yl-6,7-dihydro-5H-pyrrolo[2,3-d]pyrimidin-4-yl}-phenol]: the inhibition at 2.5 µM in experiment [1] amounted to 82%; in experiment [2], 76%; in experiment [3] it was 71%. Further, the half-inhibitory concentration (IC50) on human PI3K(p110α/p85α) was 0.02 µM.

With `CN(C)CCOc1cc(N2CCc3c(-c4cnc(N)nc4)nc(N4CCOCC4)nc32)ccn1` [Example H-32, 5-[7-(2-Dimethylaminoethoxy-pyridin-4-yl)-2-morpholin-4-yl-6,7-dihydro-5H-pyrrolo[2,3-d]pyrimidin-4-yl]-pyrimidin-2-ylamine], the values for the inhibition at 2.5 µM in experiment [1], in experiment [2] and in experiment [3] were 82%, 89% and 86%, respectively. Further, the IC50 on human PI3K(p110α/p85α) was found to be 0.018 µM.

`Cc1ccc(N2CCOCC2)cc1NC(=O)N1CCc2c(-c3cnc(N)nc3)nc(N3CCOCC3)nc21` [Example D-237, 4-(2-Amino-pyrimidin-5-yl)-2-morpholin-4-yl-5,6-dihydro-pyrrolo[2,3-d]pyrimidine-7-carboxylic acid (2-methyl-5-morpholin-4-yl-phenyl)-amide]: the inhibition at 2.5 µM in experiment [1] came to 95%; in experiment [2], 97%; in experiment [3] it was 84%. In addition, the IC50 at human PI3K(p110α/p85α) amounted to 0.005 µM.

Consider `Nc1ncc(-c2nc(N3CCOCC3)nc3c2CCN3C(=O)Nc2c(F)cc(N3CCOCC3)cc2F)cn1` [Example D-273, 4-(2-Amino-pyrimidin-5-yl)-2-morpholin-4-yl-5,6-dihydro-pyrrolo[2,3-d]pyrimidine-7-carboxylic acid (2,6-difluoro-4-morpholin-4-yl-phenyl)-amide], for which the figures for the inhibition at 2.5 µM in experiment [1], in experiment [2] and in experiment [3] were 83%, 79% and 67%, respectively. For the same compound, the IC50 on human PI3K(p110α/p85α) was found to be 0.01 µM.

`CS(=O)(=O)N1CCc2c(-c3cnc(N)nc3)nc(N3CCOCC3)nc21` [Example D-02, 5-(7-Methanesulfonyl-2-morpholin-4-yl-6,7-dihydro-5H-pyrrolo[2,3-d]pyrimidin-4-yl)-pyrimidin-2-ylamine]: the figures for the inhibition at 2.5 µM in experiment [1], in experiment [2] and in experiment [3] were 81%, 87% and 83%, respectively.

In the case of `Nc1ncc(-c2nc(N3CCOCC3)nc3c2CCN3c2ccc(CC(=O)N3CCNCC3)cc2)cn1` [Example D-172, 2-{4-[4-(2-Amino-pyrimidin-5-yl)-2-morpholin-4-yl-5,6-dihydro-pyrrolo[2,3-d]pyrimidin-7-yl]-phenyl}-1-piperazin-1-yl-ethanone], the inhibition at 2.5 µM turned out to be 86% in experiment [1], 86% in experiment [2] and 79% in experiment [3]. In addition, the IC50 at human PI3K(p110α/p85α) was found to be 0.008 µM.

Turning to `CN1CCN(Cc2ccc3cc(N4CCc5c(-c6cnc(N)nc6)nc(N6CCOCC6)nc54)ccc3c2)CC1` [Example D-333, 5-{7-[6-(4-methyl-piperazin-1-ylmethyl)naphthalen-2-yl]-2-morpholin-4-yl-6,7-dihydro-5H-pyrrolo[2,3-d]pyrimidin-4-yl}-pyrimidin-2-ylamine], the inhibition at 2.5 µM in experiment [1] amounted to 99%; in experiment [2] it was 43%; in experiment [3], 102%. Further, the IC50 at human PI3K(p110α/p85α) worked out at 0.16 µM.

In the case of `Nc1ncc(-c2nc(N3CCOCC3)nc3c2CCN3c2ccc(CN3CCN(CCCCF)CC3)cc2)cn1` [Example D-330, 5-(7-{4-[4-(4-fluorobutyl)-piperazin-1-ylmethyl]-phenyl}-2-morpholin-4-yl-6,7-dihydro-5H-pyrrolo[2,3-d]pyrimidin-4-yl)-pyrimidin-2-ylamine], the inhibition at 2.5 µM in experiment [1] was 25%; in experiment [2] it was 0%; in experiment [3], -13%.

Regarding `Nc1ncc(-c2nc(N3CCOCC3)nc3c2CCN3c2ccc(C(=O)N3CCOCC3)cc2F)cn1` [Example D-22, {4-[4-(2-Amino-pyrimidin-5-yl)-2-morpholin-4-yl-5,6-dihydro-pyrrolo[2,3-d]pyrimidin-7-yl]-3-fluoro-phenyl}-morpholin-4-yl-methanone], the inhibition at 2.5 µM in experiment [1] amounted to 82%; in experiment [2], 79%; in experiment [3] it was 83%. For the same compound, the IC50 on human PI3K(p110α/p85α) is 0.042 µM.

On to `Nc1ncc(-c2nc(N3CCOCC3)nc3c2CCN3C(=O)Nc2ccc(C(=O)N3CCOCC3)cc2)cn1` [Example D-104, 4-(2-Amino-pyrimidin-5-yl)-2-morpholin-4-yl-5,6-dihydro-pyrrolo[2,3-d]pyrimidine-7-carboxylic acid [4-(morpholine-4-carbonyl)-phenyl]-amide], for which the inhibition at 2.5 µM in experiment [1] came out at 37%; in experiment [2], 34%; in experiment [3] it was 67%. On human PI3K(p110α/p85α), the IC50 worked out at 0.006 µM.

Take `Cc1ccc(C(=O)N2CCN(C)CC2)cc1NC(=O)N1CCc2c(-c3cnc(N)nc3)nc(N3CCOCC3)nc21` [Example D-223, 4-(2-Amino-pyrimidin-5-yl)-2-morpholin-4-yl-5,6-dihydro-pyrrolo[2,3-d]pyrimidine-7-carboxylic acid [2-methyl-5-(4-methyl-piperazine-1-carbonyl)-phenyl]-amide]: the inhibition at 2.5 µM came to 95% in experiment [1], 95% in experiment [2] and 92% in experiment [3]. Further, the IC50 at human PI3K(p110α/p85α) was 0.007 µM.

Consider `CCNC(=O)N1CCc2c(-c3cnc(N)nc3)nc(N3CCOCC3)nc21` [Example D-03, 4-(2-Amino-pyrimidin-5-yl)-2-morpholin-4-yl-5,6-dihydro-pyrrolo[2,3-d]pyrimidine-7-carboxylic acid ethylamide], for which the inhibition at 2.5 µM was 92% in experiment [1], 88% in experiment [2] and 92% in experiment [3]. At human PI3K(p110α/p85α), the IC50 worked out at 0.02 µM.

With `CC(=O)N1CCc2c(-c3cnc(N)nc3)nc(N3CCOCC3)nc21` [Example D-01, 1-[4-(2-Amino-pyrimidin-5-yl)-2-morpholin-4-yl-5,6-dihydro-pyrrolo[2,3-d]pyrimidin-7-yl]-ethanone], the inhibition at 2.5 µM in experiment [1] came to 83%; in experiment [2], 89%; in experiment [3], 92%. The IC50 on human PI3K(p110α/p85α) was 0.04 µM.

(Values after patent US8022205B2, “Pyrimidine derivatives as PI3K inhibitor and use thereof” (Chugai Seiyaku Kabushiki Kaisha, priority 2006, dated 2011).)
